Data set [1] is described as follows: Myelosuppression and neutropenia in preclinical models. Particulars: in comparison to Comparator-1.
The next data set is described as follows: Neutropenia, FIG. 2. The data set is classed as cell-based. Particulars: ovarian cancer cell line; compared to Comparator 1.
The test system of a further data set is breast cancer cells. In words: Growth of cancer cell lines resistant to Comparator-1. Particulars: breast cancer cells resistant to Comparator-1. The data set is classed as cell-based.
Another data set relates to ovarian cancer cells. In words: Growth of ovarian cancer cell lines. The data set is classed as cell-based.
In the next data set the test system is prostate cancer cells. In words: Growth of cancer cell lines resistant to Comparator-1. Format: cell-based. Particulars: prostate cancer cells resistant to Comparator-1.

As to `CN1CCN(c2ccc(Nc3ncc4cc(C#N)c(=O)n(C5CCCC5)c4n3)cc2)CC1` [Compound 1, 8-cyclopentyl-2-((4-(4-methylpiperazin-1-yl)phenyl)amino)-7-oxo-7,8-dihydropyrido[2,3-d]pyrimidine-6-carbonitrile], in data set [1], the myelosuppression result was “less myelosuppression”. In data set [1], the neutropenia entry is listed as “less neutropenia”. Besides, in “Neutropenia, FIG. 2”, the “neutropenia (FIG. 2)” value was “reduced neutropenia”. For the same molecule, the “growth of cancer cell lines” value in the data set on breast cancer cells, in the data set on ovarian cancer cells (ovarian cancer cells resistant to Comparator-1) and with prostate cancer cells was “inhibited growth” each time. Moreover, the “inhibition of ovarian cancer cell line growth (FIG. 3)” value in the data set on ovarian cancer cells (compared to Comparator 1) is “higher inhibition”.
